Test results as given in paper PMC12767113, “EM2, a Natural Product MST1/2 Kinase Activator, Suppresses Non‐Small Cell Lung Cancer via Hippo Pathway Activation” (Advanced Science, 2025).

Legend:
MST1-GFP = target: T1, MST1-GFP (Homo sapiens, UniProt Q13043); experiment: microscale thermophoresis; settings: A549 cell lysate; GFP fusion as fluorophore; constant, if any, only in figure
T1 construct: gene STK4; GFP-tagged MST1 expressed from plasmid in A549 cells, RIPA lysate
T1 sequence (Q13043 1-487): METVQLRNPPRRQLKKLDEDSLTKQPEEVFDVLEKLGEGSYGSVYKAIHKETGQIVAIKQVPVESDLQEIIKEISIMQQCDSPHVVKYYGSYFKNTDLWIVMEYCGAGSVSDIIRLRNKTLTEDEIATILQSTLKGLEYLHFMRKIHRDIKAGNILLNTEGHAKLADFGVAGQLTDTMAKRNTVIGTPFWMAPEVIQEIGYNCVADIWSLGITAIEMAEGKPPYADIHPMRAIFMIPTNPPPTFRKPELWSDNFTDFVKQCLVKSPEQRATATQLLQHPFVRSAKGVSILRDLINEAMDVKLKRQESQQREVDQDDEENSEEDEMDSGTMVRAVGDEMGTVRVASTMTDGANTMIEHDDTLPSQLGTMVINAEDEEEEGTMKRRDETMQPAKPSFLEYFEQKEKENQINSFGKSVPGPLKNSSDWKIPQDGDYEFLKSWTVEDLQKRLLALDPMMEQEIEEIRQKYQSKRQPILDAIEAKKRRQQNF
Excerpt: microscale thermophoresis on MST1-GFP | Microscale thermophoresis confirmed dose‐dependent binding affinity (Figure 1H)

MST1 [1] = target: T2, MST1 (Homo sapiens, UniProt Q13043); experiment: isothermal titration calorimetry; type: binding; set-up: gene STK4; isolated MST1 protein (ITC) and "active MST1" (ADP-Glo); settings: 25 °C; 50 mM HEPES pH 7.5, 150 mM NaCl, 2 mM DTT
T2 sequence (Q13043 1-487): T1 sequence (Q13043 1-487)

MST1 [2] = target: T2, MST1; experiment: ADP-Glo kinase assay; type: biochemical; set-up: gene STK4; isolated MST1 protein (ITC) and "active MST1" (ADP-Glo); settings: activator; ATP and MOB1a substrate; 25 °C, 30 min
MST1 [3] = target: T2, MST1; experiment: CETSA (immunoblot), H520 and A549 cells; type: cell-based; set-up: gene STK4; endogenous protein in A549 and H520 cells, detected by immunoblot (antibody CST #3682); settings: 42-56 °C, 3 min; supported by DARTS (50 and 100 µM, Pronase)

Kd (MST1-GFP): 1790 ± 1690 nM
Kd (MST1 [1]): 1970 ± 1020 nM
SMILES: C=C(C)C(=O)OC1CC(C)=CC2(OC)C=C(C)C(O2)C2OC(=O)C(=C)C12 (stereo not shown) [EM2]
kinase activity (MST1 [2]): functions through its kinase activity, which significantly increased with EM2 concentration (Figure 1J)
CETSA (immunoblot), H520 and A549 cells (MST1 [3]): CETSA demonstrated that EM2 enhanced MST1 thermal stability
